In US8592581B2, “Trisubstituted purine derivatives” (Cyclacel Limited, priority 2007, dated 2013):
pIC50: −log10 of the molar value.

Tests used:
H292 = test: Alamar blue cytotoxicity assay H292; assay type: cell-based; details: Homo sapiens, NCI-H292; 72 hours; read-out: cellular cytotoxicity IC50 H292
Method: (§1) In order to determine the cellular potency of the compounds, the cytotoxicity of each compound was determined against a range of cell lines. Standard cytotoxicity methods were performed as follows: cells were seeded in 96-well plates appropriately for their doubling time (2-5000 cells per well) in RPMI or DMEM media containing 10% FCS and incubated overnight at 37° C., 5% CO2. The media was removed and 100 μl fresh media containing increasing concentrations of appropriate compound was added and the cells incubated for 72 hours at 37° C., 5% CO2. A 10% stock of alamar blue (Roche, Lewes, United Kingdom) was prepared in medium and 100 μl added to the cells which were incubated for 2 hours. Absorbance was measured on the Wallac Victor 2 1420 multi-label counter at 544-595 nm.

CYP2D6 = CYP2D6 (Homo sapiens (Human), UniProt P10635); test: Cytochrome P450 substrate identification (Bactosomes) CYP2D6; assay type: in vitro ADME; details: pH 7.4, 5 μM test compound, up to 45 min, read-out: half life in the presence of CYP2D6
Method: (§2) cDNA expressed human CYP450 enzyme preparations co-expressed with human NADPH cytochrome P450 reductase (Bactosomes™) were supplied by Cypex Ltd. Bactosomes™ (final P450 concentration CYP1A2 100 pmol/mL, CYP2C8 50 pmol/mL, CYP2C9 25 pmol/mL, CYP2C19 100 pmol/mL, CYP2D6 50 pmol/mL and CYP3A4 25 pmol/mL), 0.1M phosphate buffer pH7.4 and test compound (final substrate concentration=5 μM; final DMSO concentration=0.25%) were pre-incubated at 37° C. prior to the addition of NADPH (final concentration=1 mM) to initiate the reaction. Incubations were also performed using control bactosomes (no P450 enzymes present) to reveal any non-enzymatic degradation. The final incubation volume was 25 μL. Compounds known to be metabolised specifically by each CYP450 isoform were used as control compounds.
(§3) Each compound was incubated singly for 0, 5, 15, 30 and 45 min with each CYP isoform. The reactions were stopped by the addition of 50 μL methanol containing internal standard at the appropriate time points. The incubation plates were centrifuged at 2500 rpm for 20 min at 4° C. to precipitate the protein. Following protein precipitation, the sample supernatants were combined in cassettes of up to four compounds and analysed using generic LC-MS/MS conditions.
(§4) The In peak area ratio (which has been corrected for any loss in the incubations with the control bactosomes) was plotted against time and the gradient of the line determined.
(§5) The elimination rate constant (k)=(−gradient)

A2780 = test: Alamar blue cytotoxicity assay A2780; assay type: cell-based; details: Homo sapiens, 72 hours, read-out: cellular cytotoxicity IC50 A2780
Method: as §1

MDA-MB-436 = test: Alamar blue cytotoxicity assay MDA-MB-436; assay type: cell-based; details: Homo sapiens, 72 hours, read-out: cellular cytotoxicity IC50 MDA-MB-436
Method: as §1

CDK2/cyclin A = CDK2/cyclin A (Homo sapiens (Human), UniProt P24941); test: In-vitro recombinant kinase assay CDK2/cyclin A; assay type: biochemical; details: Table 2; average of duplicate points; read-out: CDK2/Cyclin A Average IC50
Method: (§6) To evaluate the in-vitro kinase potency of the compounds, they were screened against CDK 2 and CDK9. Kinase assays were performed in 96-well plates using recombinant CDK/cyclins generated at Cyclacel. Ltd Dundee, UK. CDK2 and CDK9 assays were performed in a total volume of 25 μl in assay buffer (25 mM b-glycerophosphate, 20 mM MOPS, 5 mM EGTA, 1 mM DTT and 1 mM NaVO3, pH 7.4), into which were added 2-4 μg of active enzyme with appropriate substrates (purified histone H1 for CDK2/cyclin E, and CDK2/cyclin A, biotinyl-Ahx-(YSPTSPS)4 for CDK9/cyclin T1). […] CDK2 reactions were stopped by addition of 25 μl of 75 mM phosphoric acid, followed by filtration through P81 filterplates (Whatman Polyfiltronics, Kent, UK). For CDK9, the reaction was stopped by addition of 25 μl of 75 mM phosphoric acid, then 5 μl of 10 mg/ml avidin was added to each well and further incubated for 2 min followed by filtration as per CDK2 assay. After washing 3 times with 75 mM orthophosphoric acid, plates were dried, scintillant added and incorporated radioactivity measured in a scintillation counter (TopCount, Packard Instruments, Pangbourne, Berks, UK). Compounds for kinase assay were made up as 10 mM stocks in DMSO and diluted into 10% DMSO in assay buffer.
as §6

CYP2C9 = CYP2C9 (Homo sapiens (Human), UniProt P11712); test: Cytochrome P450 substrate identification (Bactosomes) CYP2C9; assay type: in vitro ADME; details: pH 7.4, 5 μM test compound, up to 45 min, read-out: half life in the presence of CYP2C9
Method: as §2, §3, §4, §5

CYP3A4 = CYP3A4 (Homo sapiens (Human), UniProt P08684); test: CYP3A4 inhibition, human liver microsomes, midazolam; assay type: in vitro ADME
Method: Six test compound concentrations (0.05, 0.25, 0.5, 2.5, 5, 25 μM in DMSO; final DMSO concentration 0.26%) were incubated with human liver microsomes (0.25 mg/mL) and NADPH (1 mM) in the presence of the probe substrate midazolam (2.5 μM) for 5 min at 37° C. The selective CYP3A4 inhibitor, ketoconazole, was screened alongside the test compounds as a positive control.
For the CYP1A incubations, the reactions were terminated by the addition of methanol, and the formation of the metabolite, resorufin, was monitored by fluorescence (excitation wavelength=535 nm, emission wavelength=595 nm). For the CYP2C9, CYP2C19, CYP2D6, and CYP3A4 incubations, the reactions were terminated by the addition of methanol containing internal standard. The samples were then centrifuged, and the supernatants were combined, for the simultaneous analysis of 4-hydroxytolbutamide, 4-hydroxymephenyloin, dextrorphan, and 1-hydroxymidazolam plus internal standard by LC-MS/MS using generic LC-MS/MS conditions. Formic acid in deionised water (final concentration=0.1%) was added to the final sample prior to analysis.

Mcl-1 = Mcl-1 downregulation in H460 cells by Western blotting; assay type: cell-based
Method: The media was removed and the adherent cells washed with 5 ml PBS. […] Proteins were transferred to nitrocellulose membranes (Schleicher & Schuell, Dassel, Germany) using wet electrophoretic transfer. Membranes were stained with Ponceau S to confirm equal loading before blocking in 5% nonfat milk in PBS with 0.05% Tween 20 (PBSTM) for 2 hours. Membranes were incubated overnight at 4° C. with primary antibody (rabbit polyclonal antibody to Mcl-1, Santa Cruz), diluted 1:1000 in PBSTM. Membranes were washed 2×5 minute followed by 2×10 minute in PBS and 0.05% Tween 20 (PBST) and incubated for 1 hour in PBSTM containing horseradish peroxidase-conjugated secondary antibody. Membranes were washed as before and incubated with enhanced chemiluminescence solution (Amersham) and exposed to X-ray film (Amersham).
In a second experiment the effect of additional compounds on Mcl-1 levels was investigated.

Sequence of CYP3A4 (P08684 whole entry): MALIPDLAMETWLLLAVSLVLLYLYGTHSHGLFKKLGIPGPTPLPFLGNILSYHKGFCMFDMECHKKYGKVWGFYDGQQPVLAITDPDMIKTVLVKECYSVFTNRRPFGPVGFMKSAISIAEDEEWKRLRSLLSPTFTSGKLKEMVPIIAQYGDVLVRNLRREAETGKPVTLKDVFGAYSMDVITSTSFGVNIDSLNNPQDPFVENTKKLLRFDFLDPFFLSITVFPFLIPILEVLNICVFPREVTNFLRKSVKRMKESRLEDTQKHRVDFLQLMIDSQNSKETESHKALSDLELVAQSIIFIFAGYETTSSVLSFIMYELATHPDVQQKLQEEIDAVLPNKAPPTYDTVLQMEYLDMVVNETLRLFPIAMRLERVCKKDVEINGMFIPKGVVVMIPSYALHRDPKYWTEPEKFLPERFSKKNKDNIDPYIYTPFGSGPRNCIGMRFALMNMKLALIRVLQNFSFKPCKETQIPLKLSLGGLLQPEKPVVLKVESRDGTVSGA
Sequence of CYP2C9 (P11712 whole entry): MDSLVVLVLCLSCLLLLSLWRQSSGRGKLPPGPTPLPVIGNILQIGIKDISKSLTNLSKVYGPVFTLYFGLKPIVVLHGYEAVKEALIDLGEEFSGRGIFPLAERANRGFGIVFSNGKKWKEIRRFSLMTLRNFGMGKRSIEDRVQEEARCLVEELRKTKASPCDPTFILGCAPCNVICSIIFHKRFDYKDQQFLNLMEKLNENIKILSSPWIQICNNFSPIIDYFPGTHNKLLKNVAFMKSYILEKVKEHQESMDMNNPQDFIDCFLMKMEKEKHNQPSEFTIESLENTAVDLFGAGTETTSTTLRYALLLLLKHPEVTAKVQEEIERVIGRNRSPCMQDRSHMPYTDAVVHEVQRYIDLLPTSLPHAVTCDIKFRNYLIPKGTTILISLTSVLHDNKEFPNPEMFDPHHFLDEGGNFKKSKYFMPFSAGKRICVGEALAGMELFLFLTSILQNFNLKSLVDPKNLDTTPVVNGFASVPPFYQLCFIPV
Sequence of CYP2D6 (P10635 whole entry): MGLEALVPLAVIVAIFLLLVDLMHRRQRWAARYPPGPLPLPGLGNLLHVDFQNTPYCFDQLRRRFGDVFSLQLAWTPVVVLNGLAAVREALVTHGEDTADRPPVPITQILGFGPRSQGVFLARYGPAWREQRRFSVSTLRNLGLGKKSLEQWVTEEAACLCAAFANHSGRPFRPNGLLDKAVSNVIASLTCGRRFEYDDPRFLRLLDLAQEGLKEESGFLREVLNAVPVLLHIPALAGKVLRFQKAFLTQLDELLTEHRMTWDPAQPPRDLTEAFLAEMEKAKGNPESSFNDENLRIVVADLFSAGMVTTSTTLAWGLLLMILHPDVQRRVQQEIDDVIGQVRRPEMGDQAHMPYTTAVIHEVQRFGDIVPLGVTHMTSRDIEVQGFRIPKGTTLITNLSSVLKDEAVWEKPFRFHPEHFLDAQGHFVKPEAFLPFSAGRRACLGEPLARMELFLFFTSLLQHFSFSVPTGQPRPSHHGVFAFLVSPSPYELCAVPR

In the case of `CC[C@H](Nc1nc(NCc2cnc(C)cc2C)c2ncn(C(C)C)c2n1)[C@@H](C)O` [Compound [1]], the pIC50 (H292) was 6.43, the half-life at 5 μM (CYP2D6) was > 45 min and the pIC50 (A2780) was 6.39. The pIC50 (MDA-MB-436) was 6.36, the pIC50 (CDK2/cyclin A) was 7.05 and the half-life at 5 μM (CYP2C9) was > 45 min. The “CYP3A4-inhibiting concentration as multiple of cellular IC50” value (CYP3A4) was ~60 times, the “concentration up to which CYP3A4 is not inhibited” value (CYP3A4) was “greater than 20 μM” and the “inhibition of CYP3A4 (in words)” value (CYP3A4) was “does not significantly inhibit CYP3A4”. The IC50 (CYP3A4; human liver microsomes) was 22.5 µM, the “downregulating the levels of Mcl-1 (in words)” value (Mcl-1; H460 cells, 0.5, 1.5, 4.5 and 13.5 μM, 5 hrs) was “most effective compound from this group” and the “concentration at which significant effects on Mcl-1 levels are observed” value (Mcl-1; H460 cells, 24 hr) was 1.5 µM.
